The source of these data is PMC12127850 (RSC Medicinal Chemistry, 2025).

Usually IC50 stands for the concentration that gives 50% inhibition. A low value points to higher potency.

Structures can show the parent of a compound that is named as a salt.

Format in all cases: cell-based
Test [1] concerns the target T1, prostate-specific membrane antigen (PSMA) (Homo sapiens, UniProt Q04609). Put plainly: blocking of […]-PSiMA uptake in LNCaP cells by […] 2-PMPA.
In test [2] the target is T1, prostate-specific membrane antigen (PSMA). Put plainly: in vivo PET blocking of […]-PSiMA uptake in LNCaP tumors.
Test [3] has the same target. Put plainly: competitive displacement of […]-PSMA-1007 in PSMA-expressing LNCaP cells.

T1 sequence (Q04609 whole entry): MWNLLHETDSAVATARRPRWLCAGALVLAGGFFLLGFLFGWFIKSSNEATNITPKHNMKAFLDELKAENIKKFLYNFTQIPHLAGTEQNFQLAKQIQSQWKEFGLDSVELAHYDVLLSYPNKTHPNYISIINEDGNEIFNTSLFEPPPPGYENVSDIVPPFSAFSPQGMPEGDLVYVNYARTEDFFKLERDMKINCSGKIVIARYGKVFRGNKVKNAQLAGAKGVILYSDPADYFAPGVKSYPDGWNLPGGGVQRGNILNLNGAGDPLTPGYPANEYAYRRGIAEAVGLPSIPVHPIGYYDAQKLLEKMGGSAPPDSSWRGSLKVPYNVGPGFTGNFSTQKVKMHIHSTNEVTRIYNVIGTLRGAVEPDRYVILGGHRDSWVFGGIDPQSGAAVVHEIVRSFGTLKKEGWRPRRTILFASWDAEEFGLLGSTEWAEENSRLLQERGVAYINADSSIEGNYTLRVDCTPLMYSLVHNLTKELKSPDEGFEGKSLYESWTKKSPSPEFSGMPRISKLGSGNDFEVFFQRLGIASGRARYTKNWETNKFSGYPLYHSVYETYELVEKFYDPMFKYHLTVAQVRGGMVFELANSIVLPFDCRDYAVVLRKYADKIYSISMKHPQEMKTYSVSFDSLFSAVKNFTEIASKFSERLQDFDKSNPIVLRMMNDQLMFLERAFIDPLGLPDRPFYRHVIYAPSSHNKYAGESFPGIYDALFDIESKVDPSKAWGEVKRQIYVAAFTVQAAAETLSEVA

`O=C(O)CCC(CP(=O)(O)O)C(=O)O` (stereo not drawn) [2-PMPA, 2-(phosphonomethyl)pentanedioic acid]: the “% blocking at 1 μM” value in test [1] stood at 75 % blocking at 1 μM.

With `O=C(O)CC[C@H](NC(=O)N[C@@H](CCCCNC(=O)c1ccc(F)nc1)C(=O)O)C(=O)O` [DCFPyL], in test [2], the “% reduction of tumor uptake” value was 20 ± 10 % reduction of tumor uptake.

In turn, `CC(C)(C)[Si](F)(c1ccc(C(=O)N[C@H](CC(=O)O)C(=O)N[C@H](CC(=O)O)C(=O)NCC[N+](C)(C)CCn2cc(CCCCCCCCC(=O)NCCCC[C@H](NC(=O)N[C@@H](CCC(=O)O)C(=O)O)C(=O)O)nn2)cc1)C(C)(C)C` [compound 14, {2-[(2R)-3-Carboxy-2-[(2R)-3-carboxy-2-({4-[di-tert-butyl(fluoro)silyl]phenyl}formamido)propanamido]propanamido]ethyl}({2-[4-(8-{[(5S)-5-carboxy-5-({[(1S)-1,3-dicarboxypropyl]carbamoyl}amino)pentyl]carbamoyl}octyl)-1H-1,2,3-triazol-1-yl]ethyl})dimethylazanium trifluoroacetate] gave an IC50 in test [3] of 154 ± 47 nM.
